Data set [1] addresses T1, PtSIT1 (Phaeodactylum tricornutum, UniProt B7T1F4, Q104A).
T1 construct: gene SIT1
In words: biochemical.

Data set [2] deals with T2, PtSIT1 (Phaeodactylum tricornutum, UniProt B7T1F4).
T2 construct: gene SIT1
In words: biochemical.

Data set [3] deals with T3, PtSIT1 (Phaeodactylum tricornutum, UniProt B7T1F4, Q321A).
T3 construct: gene SIT1
In words: biochemical.

Substrate in the data set “purified protein”: O[Si](O)(O)O
In words: purified protein. Particulars: inward Na+ gradient (150 mM NaCl outside), valinomycin, 50 mM Tris, 150 mM KCl inside, pH 7.4, error s.e.m. of fit.

Consider two molecules from publication PMC4912633, “Direct evidence of the molecular basis for biological silicon transport” (Nature Communications, 2016).

T3 sequence (B7T1F4 1-512 Q321A): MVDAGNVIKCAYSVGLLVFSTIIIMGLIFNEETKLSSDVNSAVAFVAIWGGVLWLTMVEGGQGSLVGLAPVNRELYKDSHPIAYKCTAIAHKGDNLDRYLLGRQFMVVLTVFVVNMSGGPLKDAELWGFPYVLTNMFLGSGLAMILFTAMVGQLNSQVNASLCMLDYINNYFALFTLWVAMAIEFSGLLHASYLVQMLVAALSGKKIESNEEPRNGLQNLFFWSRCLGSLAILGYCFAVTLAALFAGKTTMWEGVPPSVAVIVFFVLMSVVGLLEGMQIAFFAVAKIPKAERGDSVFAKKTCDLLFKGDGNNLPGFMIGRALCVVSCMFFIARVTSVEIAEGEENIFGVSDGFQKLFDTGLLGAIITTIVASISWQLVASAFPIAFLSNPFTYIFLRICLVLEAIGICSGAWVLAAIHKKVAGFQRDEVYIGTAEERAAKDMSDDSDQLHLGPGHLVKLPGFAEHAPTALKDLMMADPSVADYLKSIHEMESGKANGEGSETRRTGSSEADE
T1 sequence (B7T1F4 1-512 Q104A): as the sequence (B7T1F4 1-512 Q321A) above, with Q104A, A321Q counted along it

Take `O[Si](O)(O)O` [silicic acid]: the values for the Kd at PtSIT1 [1], at PtSIT1 [2] and at PtSIT1 [3] were 25.5 ± 11 µM, 2.9 ± 2.3 µM and 13.3 ± 8 µM, respectively.

B1: PtSIT1 (Phaeodactylum tricornutum) (protein)
chain: MVDAGNVIKCAYSVGLLVFSTIIIMGLIFNEETKLSSDVNSAVAFVAIWGGVLWLTMVEGGQGSLVGLAPVNRELYKDSHPIAYKCTAIAHKGDNLDRYLLGRQFMVVLTVFVVNMSGGPLKDAELWGFPYVLTNMFLGSGLAMILFTAMVGQLNSQVNASLCMLDYINNYFALFTLWVAMAIEFSGLLHASYLVQMLVAALSGKKIESNEEPRNGLQNLFFWSRCLGSLAILGYCFAVTLAALFAGKTTMWEGVPPSVAVIVFFVLMSVVGLLEGMQIAFFAVAKIPKAERGDSVFAKKTCDLLFKGDGNNLPGFMIGRQLCVVSCMFFIARVTSVEIAEGEENIFGVSDGFQKLFDTGLLGAIITTIVASISWQLVASAFPIAFLSNPFTYIFLRICLVLEAIGICSGAWVLAAIHKKVAGFQRDEVYIGTAEERAAKDMSDDSDQLHLGPGHLVKLPGFAEHAPTALKDLMMADPSVADYLKSIHEMESGKANGEGSETRRTGSSEADE
Consider B1, for which the Km in the data set “purified protein” worked out at 19.1 ± 4.5 µM.

A word on the Kd: it is the free concentration of one partner at which half of the binding sites on the other are occupied at equilibrium, for simple one-to-one binding. Broadly, the Km is the substrate concentration at which the rate is half of its maximum.
